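A five-concentration, 48-hour dose response in 96-well plates underlies each endpoint, interpolated linearly between surrounding concentrations. GI50 = concentration required for 50% inhibition of growth. At the TGI there is no net growth.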
Assays:
Assay in all cases: NCI anticancer screen, dose series, 48 h
[1] = tested on: SNB-78 CNS
[2] = tested on: M19-MEL melanoma
[3] = tested on: HOP-18 NSCLC
[4] = tested on: LXFL 529 NSCLC
[5] = tested on: XF 498 CNS

Structure (SMILES)	TGI [1]	TGI [2]	TGI [3]	TGI [4]	TGI [5]	GI50 [2]
Cc1c(Cl)ccc2c1NC(=O)C2(O)C1Cc2ccccc2C1=O (stereo unspecified)	> 100 µM	> 100 µM	> 100 µM	> 100 µM		
C=CCN(N=O)C(=O)N(CCC)CCCCC(NC(C)=O)C(=O)NCc1ccccc1 (stereo unspecified)		> 100 µM	> 100 µM	> 100 µM	> 100 µM	
CSC(=S)NNC(=O)c1ccncc1	> 100 µM	35.8 µM	> 100 µM	29.3 µM	50 µM	
CN=S(=O)(C[C@]1(O)CC2OC1C1OC(C)(C)OC21)c1ccccc1 (stereo partly specified)	> 100 µM	> 100 µM		> 100 µM	> 100 µM	
CC1OC(O)CC(OC(=O)c2ccccc2)C1OC(=O)c1ccccc1 (stereo unspecified)		31.6 µM	56.8 µM	29.8 µM	34.6 µM	
COc1ccc(OC)c2cc(C3(C)SCCCS3)ccc12	> 100 µM	> 100 µM	> 100 µM	> 100 µM	> 100 µM	
O=C(CC(=O)C(F)(F)F)c1csc2ccccc12	> 100 µM	> 100 µM		> 100 µM		
Nc1nc(N)c(-c2ccc(Cl)cc2)c(CCC(=O)Nc2cccc(C(F)(F)F)c2)n1	> 100 µM		> 100 µM	> 100 µM	> 100 µM	
Clc1ccc2nc(CCSCCc3nc4ccc(Cl)cc4[nH]3)[nH]c2c1		27.4 µM	37 µM	19 µM	27.5 µM	
COc1ccc2c(c1)[n+]([O-])c(-c1nc3ccccc3s1)c(N)[n+]2[O-]	> 100 µM	> 100 µM	> 100 µM	> 100 µM		
O=C1c2ccccc2C(=O)c2nc(-c3ccccc3)c(-c3ccccc3)nc21	> 100 µM	2.02 µM	> 100 µM	> 100 µM	> 100 µM	
O=C(CC1(O)C(=O)Nc2c(Cl)cc(Cl)cc21)c1ccc2ccccc2c1 (stereo unspecified)	36.5 µM	16.3 µM	26.1 µM	21.3 µM	25.2 µM	
CCOC(=O)C1=C(C)N(NC(=O)c2ccccc2)C2(O)CCCC12C(=O)OCC (stereo unspecified)		> 100 µM		> 100 µM	> 100 µM	
O=C(C=Nc1ccccc1C(=O)[O-])c1cccs1.O=C(C=Nc1ccccc1C(=O)[O-])c1cccs1.[Cu+2]		> 100 µM				39.7 µM
Cc1c(CCl)c(=O)oc2c(C)c3occ(CCl)c(=O)c3cc12		30.3 µM	32 µM	30.2 µM		
CCCCCCCCCC(=O)OCC1OC(n2cc(F)c(=O)[nH]c2=O)C(N)C(OC(=O)CCCCCCCCC)C1O (stereo unspecified)	36.8 µM	31.2 µM		30.2 µM		

Structure (SMILES)	TGI [1]	TGI [2]	TGI [3]	TGI [4]	TGI [5]	GI50 [2]
CNC(=O)CN(CC(N)=O)C(=O)NC	> 100 µM	> 100 µM		> 100 µM	> 100 µM	
CC(=O)Nc1ccc(/C=C/C(=O)c2sc(C(N)=S)nc2C)cc1	> 100 µM	> 100 µM	> 100 µM			
O=S1c2ccc(Cl)cc2CC(SSC2Cc3cc(Cl)ccc3S(=O)c3ccccc32)c2ccccc21 (stereo unspecified)	> 100 µM	> 100 µM	> 100 µM	> 100 µM		
Cc1ccc(S(=O)(=O)N/N=C(\C(=O)Nc2cccc([N+](=O)[O-])c2)c2nc3ccc([N+](=O)[O-])cc3[nH]c2=O)cc1	> 100 µM	> 100 µM		> 100 µM		
O=C(NCC#CCO)C(F)(F)F	> 100 µM				> 100 µM	
O=C1/C(=C/c2ccccc2)CCCC/C1=C\c1ccccc1	> 100 µM	> 100 µM	> 100 µM	> 100 µM	> 100 µM	
Nc1ccc(C(=O)NN2C(=O)C(Cl)C2c2ccccc2O)cc1 (stereo unspecified)	> 100 µM	> 100 µM		> 100 µM	> 100 µM	
CCCCCCCCCCCC(=O)OCC1OC(n2cc(F)c(=O)[nH]c2=O)C(N)C(O)C1O (stereo unspecified)	> 100 µM	> 100 µM	> 100 µM	> 100 µM		
COC(=O)C1=CC2OC1(C)C1(CC1)C2=O (stereo unspecified)		51.7 µM		32.9 µM	28.1 µM	
Cn1c2cccc3nnc4cccc(c4c32)n1C	> 100 µM	> 100 µM		> 100 µM	> 100 µM	
Cc1ccc2[nH]c(=O)c(C(C#N)c3ccccc3)nc2c1 (stereo unspecified)	80.1 µM		> 100 µM	> 100 µM		
COC(=O)/C(=C/CC(N=C(c1ccccc1)c1ccccc1)C(=O)OC)N=C(c1ccccc1)c1ccccc1 (stereo unspecified)		> 100 µM		> 100 µM	> 100 µM	
COc1ccccc1NC(=O)C1=C(C)NC(C)=C(C(=O)Nc2ccccc2OC)C1c1ccccc1OC	> 100 µM	> 100 µM	> 100 µM	> 100 µM		
COc1cc(-c2c(C)c(C)nc(OC)c2C#N)cc(OC)c1OC	> 100 µM	> 100 µM	> 100 µM	> 100 µM		
Cc1cc(C)n(-c2c(O)ccc(O)c2-n2nc(C)cc2C)n1	> 100 µM	> 100 µM		> 100 µM	> 100 µM	

Source: PubChem BioAssay (NCI)
